19 compounds from patent US8012956B2, “Tropane compounds” (Exelixis, Inc., priority 2007, dated 2011) can be followed below.

The target in this assay is HSP90 (Homo sapiens, UniProt P07900). Put plainly: HSP90 inhibition (HSP90 IC50). The format is biochemical.
With `Cc1cc(C(=O)N[C@H]2C[C@H]3CC[C@@H](C2)N3c2ccc(C(=O)NC3CN(C(C)C)C3)cn2)c(C)cc1C(N)=O` [2,5-dimethyl-N-{8-[5-({[1-(1-methylethyl)azetidin-3-yl]amino}carbonyl)pyridin-2-yl]-8-azabicyclo[3.2.1]oct-3-endo-yl}benzene-1,4-dicarboxamide], the IC50 is below 500 nM.

`Cc1cc(C(=O)NC2CC3CCC(C2)N3c2ccc(C(=O)N[C@@H]3CCCN(C(C)C)C3)cn2)c(C)cc1C(N)=O` (stereo partly drawn) [2,5-dimethyl-N-{8-[5-({[(3R)-1-(1-methylethyl)piperidin-3-yl]amino}carbonyl)pyridin-2-yl]-8-azabicyclo[3.2.1]oct-3-endo-yl}benzene-1,4-dicarboxamide] returned an IC50 below 500 nM.

Compound `Cc1cc(C(=O)N[C@H]2C[C@H]3CC[C@@H](C2)N3c2ccc(C(=O)N[C@@H]3CCN(C(C)C)C3)cn2)c(C)cc1C(N)=O` [2,5-dimethyl-N-{8-[5-({[(3R)-1-(1-methylethyl)pyrrolidin-3-yl]amino}carbonyl)pyridin-2-yl]-8-azabicyclo[3.2.1]oct-3-endo-yl}benzene-1,4-dicarboxamide] yielded a half-maximal inhibitory concentration (IC50) below 500 nM. For the compound `Cc1cc(C(=O)NC2CC3CCC(C2)N3c2ccc(C(=O)N[C@@H]3CCCN(C)C3)cn2)c(C)cc1C(N)=O` (stereo partly drawn) [2,5-dimethyl-N-{8-[5-({[(3R)-1-methylpiperidin-3-yl]amino}carbonyl)pyridin-2-yl]-8-azabicyclo[3.2.1]oct-3-endo-yl}benzene-1,4-dicarboxamide], the IC50 was below 500 nM. For `Cc1cc(C(=O)NC2CC3CCC(C2)N3c2ccc(C(=O)N[C@@H]3CCN(C)C3)cn2)c(C)cc1C(N)=O` (stereo partly drawn) [2,5-dimethyl-N-{8-[5-({[(3R)-1-methylpyrrolidin-3-yl]amino}carbonyl)pyridin-2-yl]-8-azabicyclo[3.2.1]oct-3-endo-yl}benzene-1,4-dicarboxamide], the 50% inhibitory concentration (IC50) lay in the range of 500 to 999 nM.

The compound `Cc1cc(C(=O)NC2CC3CCC(C2)N3c2ccc(C(=O)N[C@H]3CCCN(C(C)C)C3)cn2)c(C)cc1C(N)=O` (stereo partly drawn) [2,5-dimethyl-N-{8-[5-({[(3S)-1-(1-methylethyl)piperidin-3-yl]amino}carbonyl)pyridin-2-yl]-8-azabacyclo[3.2.1]oct-3-endo-yl}benzene-1,4-dicarboxamide] displayed an IC50 of 500 to 999 nM. `Cc1cc(C(=O)N[C@H]2C[C@H]3CC[C@@H](C2)N3c2ccc(C(=O)N[C@H]3CCN(C(C)C)C3)cn2)c(C)cc1C(N)=O` [2,5-dimethyl-N-{8-[5-({[(3S)-1-(1-methylethyl)pyrrolidin-3-yl]amino}carbonyl)pyridin-2-yl]-8-azabicyclo[3.2.1]oct-3-endo-yl}benzene-1,4-dicarboxamide] registered an IC50 below 500 nM.

Compound `Cc1cc(C(=O)NC2CC3CCC(C2)N3c2ccc(C(=O)N[C@H]3CCCN(C)C3)cn2)c(C)cc1C(N)=O` (stereo partly drawn) [2,5-dimethyl-N-{8-[5-({[(3S)-1-methylpiperidin-3-yl]amino}carbonyl)pyridin-2-yl]-8-azabicyclo[3.2.1]oct-3-endo-yl}benzene-1,4-dicarboxamide] displayed an IC50 below 500 nM. Consider `Cc1cc(C(=O)NC2CC3CCC(C2)N3c2ccc(C(=O)N[C@H]3CCN(C)C3)cn2)c(C)cc1C(N)=O` (stereo partly drawn) [2,5-dimethyl-N-{8-[5-({[(3S)-1-methylpyrrolidin-3-yl]amino}carbonyl)pyridin-2-yl]-8-azabicyclo[3.2.1]oct-3-endo-yl}benzene-1,4-dicarboxamide], for which the IC50 is below 500 nM. For the compound `Cc1cc(C(=O)N[C@H]2C[C@H]3CC[C@@H](C2)N3c2ccc(C(=O)NC3CCN(C(C)C)CC3)cn2)c(C)cc1C(N)=O` [2,5-dimethy˜-N-{8-[5-({[1-(1 methylethyl)piperidin-4-yl]amino}carbonyl)pyridin-2-yl]-8-azabicyclo[3.2.1]oct-3-endo-yl}benzene-1,4-dicarboxamide], the IC50 lay within 500 to 999 nM. `Cc1cc(C(N)=O)cc(C)c1C(=O)N[C@H]1C[C@H]2CC[C@@H](C1)N2c1ccc(C(=O)NCc2ccccc2)cn1` [2,6-dimethyl-N1-[8-(5-{[(phenylmethyl)amino]carbonyl}pyridin-2-yl)-8-azabicyclo[3.2.1]oct-3-endo-yl]benzene-1,4-dicarboxamide] returned an IC50 of 500 to 999 nM. The same measure for `CC(=O)Nc1cc(C(=O)N[C@H]2C[C@H]3CC[C@@H](C2)N3c2ccc(C(N)=O)cn2)ccc1C(N)=O` [2-(acetylamino)-N4-{8-[5-(aminocarbonyl)pyridin-2-yl]-8-azabicyclo[3.2.1]oct-3-endo-yl}benzene-1,4-dicarboxamide]: 1000 to 2000 nM; for `CCCCNc1cc(C(=O)N[C@H]2C[C@H]3CC[C@@H](C2)N3c2ccc(C(=O)C3CC3)cn2)ccc1C(N)=O` [2-(butylamino)-N4-{8-[5-(cyclopropylcarbonyl)pyridin-2-yl]-8-azabicyclo[3.2.1]oct-3-endo-yl}benzene-1,4-dicarboxamide]: below 500 nM; for `C[C@H](NC(=O)c1ccc(N2C3CCC2CC(NC(=O)c2ccc(C(N)=O)c(NC4CCC4)c2)C3)nc1)c1ccc(N2CCN(C)CC2)cc1` (stereo partly drawn) [2-(cyclobutylamino)-N4-(8-{5-[({(1S) 1-[4-(4-methylpiperazin-1-yl)phenyl]ethyl}amino)carbonyl]pyridin-2-yl}-8-azabicyclo[3.2.1]oct-3-endo-yl)benzene-1,4-dicarboxamide]: below 500 nM.

Take `C[C@H](NC(=O)c1ccc(N2C3CCC2CC(NC(=O)c2ccc(C(N)=O)c(OC4CCC4)c2)C3)nc1)c1ccc(N2CCN(C)CC2)cc1` (stereo partly drawn) [2-(cyclobutyloxy)-N4-(8-{5-[({(1S)-1-[4-(4-methylpiperazin-1-yl)phenyl]ethyl}amino)carbonyl]pyridin-2-yl}-8-azabicyclo[3.2.1]oct-3-endo-yl)benzene-1,4-dicarboxamide]: the IC50 lay in the range of 500 to 999 nM. As for `COc1cc(C(=O)NC2CC3CCC(C2)N3c2ccc(C(=O)N[C@@H](C)c3ccc(N4CCN(C)CC4)cc3)cn2)ccc1C(N)=O` (stereo partly drawn) [2-(methyloxy)-N4-(8-{5-[({(1S)-1-[4-(4-methylpiperazin-1-yl)phenyl]ethyl}amino)carbonyl]pyridin-2-yl}-8-azabicyclo[3.2.1]oct-3-endo-yl)benzene-1,4-dicarboxamide], the IC50 is below 500 nM.

`CCC(CC)Nc1cc(C(=O)NC2CC3CCC(C2)N3c2ccc(C(=O)N[C@@H]3CCNC3)cn2)ccc1C(N)=O` (stereo partly drawn) [2-[(1-ethylpropyl)amino]-N4-[8-(5-{[(3R)-pyrrolidin-3-ylamino]carbonyl}pyridin-2-yl)-8-azabicyclo[3.2.1]oct-3-endo-yl]benzene-1,4-dicarboxamide] showed an IC50 below 500 nM. `CCC(CC)Nc1cc(C(=O)NC2CC3CCC(C2)N3c2ccc(C(=O)N[C@H]3CCCNC3)cn2)ccc1C(N)=O` (stereo partly drawn) [2-[(1-ethylpropyl)amino]-N4-[8-(5-{[(3S)-piperidin-3-ylamino]carbonyl}pyridin-2-yl)-8-azabicyclo[3.2.1]oct-3-endo-yl]benzene-1,4-dicarboxamide] returned an IC50 below 500 nM.

On to `CCC(CC)Nc1cc(C(=O)N[C@H]2C[C@H]3CC[C@@H](C2)N3c2ccc(C(=O)CCN3CCCCC3)cn2)ccc1C(N)=O` [2-[(1-ethylpropyl)amino]-N4-{8-[5-(3-piperidin-1-ylpropanoyl)pyridin-2-yl]-8-azabicyclo[3.2.1]oct-3-endo-yl}benzene-1,4-dicarboxamide], for which the IC50 is below 500 nM.
